Tests used:
human PGHS-2 = molecular target: T1, human PGHS-2 (Homo sapiens, UniProt P35354); experiment: Time- and concentration-dependent inhibition of human PGHS-2, TLC assay (3 h preincubation); format: biochemical; settings: for IC50 / IC50 (PGHS-1)/IC50 (PGHS-2): Table 2; for IC50: PGHS-2 88 nM; for IC50 (PGHS-1)/IC50 (PGHS-2): selectivity ratio, 180 min
T1 construct: made in house; host or cells: insect cells (baculovirus vectors)
T1 sequence (P35354 18-604): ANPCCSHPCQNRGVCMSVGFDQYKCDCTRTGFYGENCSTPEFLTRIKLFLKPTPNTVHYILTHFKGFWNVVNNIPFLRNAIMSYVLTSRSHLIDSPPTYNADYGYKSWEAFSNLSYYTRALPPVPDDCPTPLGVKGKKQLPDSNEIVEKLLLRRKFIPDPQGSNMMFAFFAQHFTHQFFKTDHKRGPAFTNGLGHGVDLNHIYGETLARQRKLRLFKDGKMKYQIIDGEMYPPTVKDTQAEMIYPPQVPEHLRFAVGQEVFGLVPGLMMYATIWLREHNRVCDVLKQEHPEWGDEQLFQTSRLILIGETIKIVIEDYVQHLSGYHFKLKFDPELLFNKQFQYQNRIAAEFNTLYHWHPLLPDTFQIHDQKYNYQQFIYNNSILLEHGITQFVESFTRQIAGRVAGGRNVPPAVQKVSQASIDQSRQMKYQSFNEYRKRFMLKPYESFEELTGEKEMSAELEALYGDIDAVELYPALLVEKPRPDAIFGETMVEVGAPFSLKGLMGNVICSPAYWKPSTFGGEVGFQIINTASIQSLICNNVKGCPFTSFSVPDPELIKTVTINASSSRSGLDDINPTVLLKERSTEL
Procedure: (§1) Cyclooxygenase activity of ovine PGHS-1 (22 nM) or human PGHS-2 (88 nM) was assayed by TLC. Reaction mixtures of 200 μL consisted of hematin-reconstituted protein in 100 mM Tris-HCl, pH 8.0, 500 μM phenol, and [1-^14 C]arachidonic acid (50 μM, 57 mCi/mmol). For the time-dependent inhibition assay, hematin-reconstituted PGHS-1 (22 nM) or PGHS-2 (88 nM) was preincubated at room temperature for 2 hours and then at 0° C. for 1 hour with varying concentrations of inhibitor in DMSO followed by the addition of [1-^14 C]arachidonic acid (50 μM) for 30 seconds at 37° C. Reactions were terminated by solvent extraction in diethyl ether/methanol/1 M citrate, pH 4.0 (30:4:1). The organic phase was spotted on a TLC plate (Amersham Corp.). The plate was developed with ethyl acetate/methylene chloride/glacial acetic acid (75:25:1) at 4° C. Radiolabeled products were quantitated with a radioactivity scanner (Bioscan, Inc., Washington, D.C.).
(§2) conducted at room temperature for 3 hours. The cyclooxygenase reaction was
(§3) initiated by the addition of 14C-arachidonic acid (50 μM) to the
(§4) incubation mixtures at 37 C for 30 seconds.
(§5) conducted at room temperature for 3 hours. The cyclooygenase reaction was
(§6) initiated by the addition of ^14 C-arachidonic acid ([…]) to the
(§7) incubation mixtures at 37° C. for 30 sec.

holoPGHS-2 = experiment: pH dependence of time-dependent inhibition of cyclooxygenase activity of holoPGHS-2, oxygen uptake assay; format: biochemical, human
Procedure: ApoPGHS-2 (5 μM, 1.62 μg/μL) in 100 mM sodium phosphate buffer of pH 6, 7, 8, and 9 was reconstituted with 2 equivalents of hematin. Compound 2 (1000-fold excess) in DMSO was added to the reaction mixture. Periodically, 0.16 μM enzyme aliquots (final inhibitor concentration ~178 μM) were analyzed for remaining cyclooxygenase activity. Open circles, cyclooxygenase activity of holoPGHS-2 treated with 2 at pH 6; closed circles, cyclooxygenase activity of holoPGHS-2+2 at pH 7; open squares, cyclooxygenase activity of holoPGHS-2+2 at pH 8; closed squares, cyclooxygenase activity of holoPGHS-2+2 at pH 9. Control experiments in the absence of inhibitor remained linear throughout the assay period.
ApoPGHS-2 (5 μM, 1.62 μg/μL) in 100 mM sodium phosphate buffer of pH 6, 7, 8, and 9 was reconstituted with 2 equivalents of hematin. Compound 54 (181 μM) in DMSO was added to the reaction mixture. Periodically, 0.16 μM enzyme aliquots (final inhibitor concentration ~6 μM) were analyzed for remaining cyclooxygenase activity. […]
Oxygen consumption was measured at 37° C. with a Gilson model 5/6 oxygraph (Gilson Medical Electronics, Inc., Middleton, Wis.) equipped with a clark electrode and a thermostated cuvette. […] Oxygen uptake was initiated by the addition of 100 μM sodium arachidonate, and the initial reaction velocity was determined from the linear portion of the oxygen uptake curve. […]

apo- and holoPGHS-2 = experiment: Inactivation of cyclooxygenase activity of apo- and holoPGHS-2 and reactivation by hydroxylamine; format: biochemical, human; settings: 10 mM inhibitor, pH 8, 37° C.
Procedure: Apo or HoloPGHS-2 ([…]) was inactivated with a 1000-fold excess of 2-acetoxythioanisole (2) at 22.5° C. in 100 mM Tris-HCl buffer, pH 8 containing […] phenol for the indicated time period, and then hydroxylamine (80 mM) in 10 mM Tris-HCl buffer, pH 7.5 was added as indicated by the arrow. Periodic 0.16 μM aliquots of holoPGHS-2 (open circles), holoPGHS-2+2-acetoxythioanisole (open squares), apoPGHS-2 (closed circles), apoPGHS-2+2-acetoxythioanisole (closed squares) were analyzed for remaining cyclooxygenase activity.
Oxygen consumption was measured at 37° C. with a Gilson model 5/6 oxygraph (Gilson Medical Electronics, Inc., Middleton, Wis.) equipped with a clark electrode and a thermostated cuvette. […] Oxygen uptake was initiated by the addition of 100 μM sodium arachidonate, and the initial reaction velocity was determined from the linear portion of the oxygen uptake curve.
ApoPGHS-2 (5 μM) or apoPGHS-2 (5 μM), reconstituted with 2 equivalents of hematin in 100 mM Tris-HCl, pH 8 at 37° C. containing 500 μM phenol was treated with 2-acetoxy-1-thioanisole (10 mM). Periodically, 0.16 μM enzyme aliquots were analyzed for remaining cyclooxygenase activity as described earlier. […] Hydroxylamine hydrochloride (80 mM) in 10 mM Tris-HCl, pH 7.5 was then added to the incubation mixture and 0.16 μM enzyme aliquots were analyzed for reactivation of the inhibited cyclooxygenase-2. […]

[1] = test system: PGHS-2 in activated RAW264.7 macrophages; experiment: Inhibition of PGHS-2 in activated RAW264.7 macrophages; format: cell-based, murine; settings: RAW 264.7, LPS and γ-interferon; for inhibitory effect on PGHS-2 in activated macrophages compared with aspirin: FIGS. 14 and 15, aspirin 100 μM; for inhibition of cyclooxygenase activity in activated macrophages: FIG. 16
Procedure: RAW 264.7 cells were activated for 7 hours at 37° C. in serum free DMEM with LPS (500 ng/mL) and γ-interferon (10 U/mL).
RAW 264.7 cells were activated for 7 hours at 37° C. in serum free DMEM with LPS (500 ng/mL) and γ-interferon (10 U/mL). […] The cyclooxygenase reaction was initiated by adding [1-^14 C]-arachidonic acid (20 μM) for 15 min at 37° C.
The murine macrophage cell line RAW264.7 were seeded overnight for 30% confluency the following morning. Overnight DMEM and fetal bovine serum (FBS) was removed and 2 mL DMEM containing 1.5% FBS±500 ng/mL LPS and 10 units/mL interferon-γ were added for 7.5 hours at 37° C. […] Arachidonic acid metabolism was measured by adding 20 μM 14C-AA for 15 min at room temperature. Aliquots (200 μL) were removed into termination solution and run on TLC plates. In the case of 2-acetoxythioanisole (2), following 8 hours of activation, 500 μM 2 was added for the next 3.5 hours. After 11.5 hours of activation, 20 μM [1-^14 C]arachidonic acid was incubated with the cells for 20 minutes at room temperature, and total products were determined by TLC.

apoPGHS-1 = experiment: Inhibition of cyclooxygenase activity of apoPGHS-1 and reactivation by hydroxylamine; format: biochemical, ovine
ovine PGHS-1 [2] = molecular target: T2, ovine PGHS-1 (Ovis aries, UniProt P05979); experiment: Time- and concentration-dependent inhibition of ovine PGHS-1, TLC assay (3 h preincubation); format: biochemical; settings: FIG. 5; 1 h at room temperature
T2 construct: PGHS-1 was purified from sheep seminal vesicles as described earlier; tissue Oxford Biomedical Research, Inc. (supplier of the sheep seminal vesicles); host or cells: sheep seminal vesicles
T2 sequence (P05979 25-600): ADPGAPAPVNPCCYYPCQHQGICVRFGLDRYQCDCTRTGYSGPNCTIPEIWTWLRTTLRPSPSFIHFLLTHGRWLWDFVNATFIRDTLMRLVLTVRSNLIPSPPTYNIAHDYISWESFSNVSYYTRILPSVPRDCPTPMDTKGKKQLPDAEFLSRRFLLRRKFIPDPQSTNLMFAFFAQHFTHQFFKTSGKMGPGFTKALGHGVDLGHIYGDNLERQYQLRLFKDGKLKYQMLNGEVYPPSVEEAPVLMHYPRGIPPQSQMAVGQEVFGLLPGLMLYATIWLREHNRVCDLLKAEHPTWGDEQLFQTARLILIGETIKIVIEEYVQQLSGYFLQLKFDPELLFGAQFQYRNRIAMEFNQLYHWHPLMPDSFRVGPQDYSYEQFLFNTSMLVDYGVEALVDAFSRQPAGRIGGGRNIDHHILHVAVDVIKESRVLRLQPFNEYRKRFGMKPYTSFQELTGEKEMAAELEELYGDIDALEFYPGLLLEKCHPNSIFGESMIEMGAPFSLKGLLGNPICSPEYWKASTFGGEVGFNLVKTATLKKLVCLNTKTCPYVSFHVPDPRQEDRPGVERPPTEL

ovine PGHS-1 [3] = molecular target: T2, ovine PGHS-1; experiment: as above; format: biochemical; settings: Table 2; PGHS-1 22 nM, 3 h at room temperature
Procedure: as §1, §2, §3, §4, §5, §6, §7

| SMILES | IC50 (human PGHS-2; 3 h at room temperature) | IC50 (PGHS-1)/IC50 (PGHS-2) (human PGHS-2) | inhibitory effect on PGHS-2 in activated macrophages compared with aspirin [1] | IC50 (ovine PGHS-1 [3]) | inhibition of cyclooxygenase activity in activated macrophages [1] | also measured |
| --- | --- | --- | --- | --- | --- | --- |
| CSc1ccccc1OC(C)=O [Compound 2, 2-acetoxythioanisole] | 250 µM | > 100 | greater inhibitory effect on PGHS-2 in activated macrophages than aspirin | – | – | inhibition of cyclooxygenase activity of holoPGHS-2 (holoPGHS-2; FIG. 7, pH 9, 10 mM inhibitor): greatly inhibited; inhibition of cyclooxygenase activity (apo- and holoPGHS-2): greater than 70% |
| CC(=O)n1ccnc1 [N-acetylimidazole] | – | – | – | – | – | inhibition of cyclooxygenase activity of apoPGHS-1 (apoPGHS-1): inhibits the cyclooxygenase activity of apoPGHS-1; reactivation after addition of hydroxylamine (apoPGHS-1; hydroxylamine added): the enzyme activity is regenerated |
| CC(=O)Oc1ccccc1C(=O)O [aspirin] | – | – | – | – | – | inhibitory effect on PGHS-1 versus PGHS-2 (ovine PGHS-1 [2]): greater inhibitory effect on PGHS-1 than PGHS-2 |
| CCCCC#CCSc1ccccc1OC(C)=O [Compound 87, 2-Acetoxyphenyl-hept-2-ynyl sulfide] | – | 21 | – | > 17 µM | greatly inhibited | inhibition of cyclooxygenase activity of human holoPGHS-2 (in words) (human PGHS-2; FIGS. 12 and 13, 1-16 μM): greatly inhibited |
| CCCCCCCSc1ccccc1OC(C)=O [Compound 54, 2-Acetoxyphenylheptyl sulfide] | 2 µM | 3 | greater inhibitory effect on PGHS-2 in activated macrophages than aspirin | 6 µM | greatly inhibited | inhibition of cyclooxygenase activity of human holoPGHS-2 (in words) (human PGHS-2; FIG. 9, 3 h at room temperature): greatly inhibited; pH dependency of inhibition of cyclooxygenase activity of human holoPGHS-2 (holoPGHS-2; FIG. 10, pH 6, 7, 8, 9, 181 μM): greatest inhibition seen at pH 9 |
